Data taken from patent US20050208511A1, “DMBT1 as a clinical marker and uses thereof” (priority 2003, published 2005).

How the values were obtained:
endometrium = assay: average endometrial thickness in treated monkeys; assay type: in vivo, cynomolgus monkeys (Macaca fascicularis); conditions: Ovx/E2 + PRM 10 mg/kg daily oral, 19 days
Excerpt: (§1) Adult female cynomolgus monkeys (Macaca fascicularis) were obtained from Covance Research Products. Following one complete menstrual cycle and in the follicular phase of the subsequent menstrual cycle, the animals were ovariectomized by a mid-ventral laparotomy. Ovariectomized (OVX) animals were subject to estrogen treatment after the fourth week following ovariectomy.
Animals and treatment were the same as Example 1 with the following exceptions. To study the effect of PRMs on the endometrium and gene expression, groups of three ovariectomized (OVX) monkeys were given an estrogen implant (E2), plus daily oral doses of the following PRMs for 19 days: mifepristone at 10 mg/kg/d; 17N11-DE (17β-N-substituted-11β-dimethylaminophenyl-estra-4,9-dien-3-one) 1.0, 3.0, or 10 mg/kg/d; 17N11-PE (17β-N-substituted-11β-piperidinylphenyl-estra-4,9-dien-3-one) at 1.0, 3.0, or 10 mg/kg/d. A placebo (0.5% methylcellulose) was administered as a control. 17N11-DE and 17N11-PE are two PRMs that have been described in PCT Publication No. WO 99/62928. Tissue samples were taken from endometria and myometria for histological analysis.

DMBT1 [1] = assay: DNA microarray analysis of DMBT1 expression in endometrium of ovariectomized monkeys; assay type: in vivo, cynomolgus monkeys (Macaca fascicularis); conditions: for effect on estrogen-induced increase in DMBT1 mRNA levels: OVX monkeys with estrogen implant plus mifepristone 10 mg/kg/d, microarray analysis and PCR
Excerpt: as §1
Following this period, the OVX monkeys were euthanized and tissue biopsies were taken from endometria of the monkeys treated with estrogen and the placebo. (Details of the endometrial features in OVX monkeys and OVX+estrogen-treated monkeys is described in Example 4.) The biopsies were placed in sterile containers, snap frozen immediately in liquid nitrogen, and stored at −80° C. until processed. Total RNA was prepared from each endometrial tissue biopsy, as described below.
Total RNA was prepared from endometrial tissue biopsies (approximately 50 mg each) using RNAzol™ (Tel-Test, Friendswood, Tex.), as follows. Two milliliters of RNAzol™ were used per 100 mg of tissue. Tissues were homogenized for 2 to 3 minutes using a Tissue Tearor homogenizer (Model No. 985-370; BioSpec Products, Bartlesville, Okla.), then transferred to a glass mortar bowl. The tissues were ground with at least 10 strokes of the pestle until a clear suspension was obtained. The homogenates were transferred to a polypropylene conical flask, to which 0.1 mL of chloroform per 1 mL of homogenate was added. The mixtures were then shaken vigorously for 1 minute. The suspensions were then transferred to a 2 mL microcentrifuge tube and centrifuged for 15. minutes at 12000 g and at 4° C. in a fixed angle rotor using a Biofuge 17R centrifuge (Baxter, Deerfield, Ill.). The aqueous phase was carefully transferred to a new microcentrifuge tube. An equal volume of isopropanol was added to the aqueous phase, mixed gently, and incubated at 4° C. for 15 minutes. RNA was pelleted by centrifuging the mixture for 15 minutes at 12000 g and at 4° C. as described above. The supernatant was removed and the pellet washed with 75% (v/v) ethanol (Pharmco Products, Brookfield, Conn.), followed by centrifugation at 7500 g for 8 minutes at 4° C. The supernatant was removed, and then the RNA pellet was air-dried briefly and resuspended in RNase-free water (Promega, Madison, Wis.). The samples were then treated with Amplification Grade RNase-free DNase I to remove any residual DNA (Invitrogen, Carlsbad, Calif.). Specifically, twenty micrograms of RNA were treated in a reaction volume of 0.1 mL, containing 1× DNase I reaction buffer and 10 units of DNase I. The reaction continued at room temperature for 15 minutes. […]

DMBT1 [2] = assay: quantitative RT-PCR of DMBT1 in uterus of ovariectomized rats; assay type: in vivo, Wistar rats; conditions: OVX rats, ethinyl estradiol + medroxyprogesterone acetate + 10 mg/kg mifepristone (FIG. 3B)
Protocol: Six weeks old ovariectomized Wistar rats (Charles River, Wilmington, Mass.) were dosed for either one day or six weeks with vehicle or test compounds. All treatments were delivered orally, once daily, in 0.5% methylcellulose or sesame oil. After treatment, the uteri were removed, total RNA was purified from the tissues using TRIzol reagent (Invitrogen, Carlsbad, Calif.) as directed by the manufacturer.
Quantitative reverse transcription-polymerase chain reactions (RT-PCR) of DMBT1 from rat RNA samples were carried out using a One-Step RT-PCR Master Mix Kit (Applied Biosystems, Foster City, Calif.) and an ABI Prism 7000 Sequence Detection System (Applied Biosystems), as described by the manufacturer. Commercially available primers and FAM-labeled MGB probes for human and rat DMBT1 (catalog numbers Hs00244827_ml and Rn00575705_ml, respectively) were obtained from Applied Biosystems (Foster City, Calif.). Messenger RNA levels were normalized against 18S ribosomal RNA levels determined using primers and a VIC- and TAMRA-labeled probe from the same vendor.

DMBT1 [3] = assay: Northern analysis of DMBT1 expression in rat uterus; assay type: in vivo, Sprague Dawley rats; conditions: 70 μg/kg/day estrone + 1 mg/kg/day compound, relative to estrone alone (FIG. 3A)
Protocol: (§2) Ten groups of 22-day-old female Sprague Dawley rats (three animals per group) were used to evaluate the effects of estrone, tamoxifen, raloxifene, and ICI 182780 on DMBT1 expression in the uterus. The following groups of rats were treated for three days as follows:
(§3) All treatments were delivered orally in 0.5% Methocel. After treatment the animals were euthanized and the uteri were collected, weighed, frozen in liquid nitrogen, and stored at −20° C. RNA was purified from the frozen uteri using 1.0 mL of TRIzol Reagent (Invitrogen) and a PowerGen 25 tissue homogenizer (Fisher Scientific), according to the manufacturer's instructions.
Northern analysis was performed to determine gene expression, including DMBT1 expression, in the uterus of control and treated rats. For gel electrophoresis, samples containing 2 μg of total RNA in a volume of 2 μL of water were added to 6 microliters of formaldehyde loading dye (Ambion) and incubated at 65° C. for 20 minutes. One microliter of a 0.1 mg/ml ethidium bromide solution was then added to each sample. […] The RNA was transferred to a Hybond-N membrane (Amersham) for […] by capillary transfer blotting, using 10×SSC (0.15 M Sodium citrate, pH 7.0, 1.5 M NaCl), after which the membranes were stained with ethidium bromide, destained with water, and photographed for lane loading comparison. The membranes were then air-dried and kept at room temperature until hybridization.
A glycerol stock of a bacterial clone carrying a plasmid (pINCY) containing the rat ebnerin (DMBT1) gene was obtained from Incyte Genomics (ID#: 0000101155000011). […] One colony was selected and used to inoculate 200 mL of Lennox L Broth (Sigma)+50 μg/mL ampicillin (Sigma). The liquid culture was grown overnight at 37° C. and the bacteria were collected by centrifugation. Purification of plasmid DNA was carried out using a QIAfilter plasmid maxi kit (QIAgen) according to the manufacturer's instructions.
Purified pINCY/DMBT1 was treated with the restriction enzymes EcoRI and NotI (Promega) for the preparation and isolation of a 1,174 bp DNA fragment containing the ebnerin probe (DMBT1). The products of the restriction enzyme reaction were separated by electrophoresis on a 1× TAE, 1% SeaKem Gold Agarose Reliant gel, and the band corresponding to the 1.174 kb DNA ebnerin clone was excised. The ebnerin DNA probe was purified from the gel slice using a QIAquick Gel Extraction Kit (QIAgen) according to the manufacturer's instructions. Bound DNA was eluted from the QIAgen column with 50 μL of elution buffer. The ebnerin DNA probe in the eluate was quantified by comparison to a DNA standard by gel electrophoresis. The ebnerin DNA probe was then diluted to a final concentration of 25 ng/μL.
Random-primed probe was made from 25 ng of the purified ebnerin DNA using a DECAprime II kit (Ambion) and Redivue α-^32P dATP (10 mCi/mL) (Amersham) according to the manufacturer's instructions, with the exception that the reaction was incubated for 30 minutes at 37° C. After adding EDTA to stop the reaction, the labeled probe was purified using a QIAquick Nucleotide Removal Kit (QIAgen) according to the manufacturer's instructions, with the final volume of eluted probe being 50 μL. Two microliters were counted in a scintillation counter to ensure optimal radionuclide incorporation (>2×10^6 cpm/μL).
The blot membrane as described in section A was wet in 2×SSC buffer (Sigma) for 15 minutes, then pre-hybridized in 10 mL RapidHyb (Amersham) at 65° C. for 20 minutes. The probe was boiled for 10 minutes, and 25 μL was added to 10 mL of RapidHyb, pre-warmed to 65° C. The blot membrane was added to the diluted probe solution and incubated, with rotation, in a hybridization oven for approximately 10 hours.
The membrane was removed from the probe-containing solution and rinsed twice with 2×SSPE +0.5% SDS+0.5% pyrophosphate at room temperature, and then washed once, with gentle agitation, for 30 minutes at room temperature in the same solution.

uterus = assay: uterine weight in 22-day-old female rats; assay type: in vivo, Sprague Dawley rats; conditions: oral; for uterine weight on co-treatment with estrone: 70 μg/kg/day estrone + 1 mg/kg/day compound, three days (FIG. 1); for uterine weight: compound alone, three days, estrone 70 μg/kg/day, others 1 mg/kg/day, vs control (FIG. 1)
Protocol: as §2, §3
In rats, uteri increase in size under the proliferative influence of estrogen, and this increase in size can be measured by weighing the tissues.
Administration of the treatments and collection of tissue samples were carried out according to the procedure described in Example 2. RNA was purified, blotted and hybridized to radioactively labeled rat ebnerin cDNA as in described in Example 2.

luminal epithelium = luminal epithelium thickening in rat uterus sections; assay type: in vivo, Wistar rats; conditions: OVX rats dosed six weeks, compared to sham and ovariectomized control; estrogen = ethinyl estradiol
Protocol: Mature, six week-old ovariectomized or sham-operated Wistar rats (Charles River) were dosed with ethinyl estradiol, tamoxifen or raloxifene for six weeks. Uteri were removed, sectioned for immunohistochemical analysis for DMBT1 expression using a polyclonal goat antibody against the human protein.
Tissues were trimmed and processed for paraffin embedding according to conventional methods. Five-micron sections were cut, mounted onto SuperFrost Plus+(Fisher Scientific, Pittsburgh, Pa.) microscopic slides and dried overnight. The protocols for routine single immunohistochemistry (IHC) have been described previously (D'Andrea et al., 2001, Biotechnic Histochem. 76:97-106). Briefly, tissue sections on microscopic slides were dewaxed and re-hydrated. Slides were microwaved for 5 min in Target buffer (Dako, Carpenturia, Calif.), cooled, placed in phosphate-buffered saline (PBS, pH 7.4) and treated with 3% (v/v) H2O2 for 10 min at room temperature. All incubations (30 min each) and washes were performed at room temperature. Normal rabbit blocking serum (Vector Labs, Burlingame, Calif.) was placed on all slides for 10 min. After a brief rinse in PBS, sections were treated with goat polyclonal DMBT1 primary antibody (1:25, Hypromatrix, Worcester, Mass.). Slides were then washed in PBS and treated with rabbit anti-goat biotinylated secondary antibodies (Vector Labs). After washing in PBS, the avidin-biotin-horseradish peroxidase complex reagent (HRP, Vector Labs) was added. All slides were washed and treated with 3,3′-diaminobenzidine (DAB, Biomeda, Foster City, Calif.) two times for 5 min each, rinsed in distilled water, and counterstained with hematoxylin.

DMBT1 [4] = assay: immunohistochemical analysis of DMBT1 expression in rat uterus; assay type: in vivo, Wistar rats; conditions: OVX rats dosed six weeks; compared with estrogen (ethinyl estradiol)
Protocol: Tissues were trimmed and processed for paraffin embedding according to conventional methods. Five-micron sections were cut, mounted onto SuperFrost Plus+(Fisher Scientific, Pittsburgh, Pa.) microscopic slides and dried overnight. […] Briefly, tissue sections on microscopic slides were dewaxed and re-hydrated. Slides were microwaved for 5 min in Target buffer (Dako, Carpenturia, Calif.), cooled, placed in phosphate-buffered saline (PBS, pH 7.4) and treated with 3% (v/v) H2O2 for 10 min at room temperature. All incubations (30 min each) and washes were performed at room temperature. Normal rabbit blocking serum (Vector Labs, Burlingame, Calif.) was placed on all slides for 10 min. After a brief rinse in PBS, sections were treated with goat polyclonal DMBT1 primary antibody (1:25, Hypromatrix, Worcester, Mass.). Slides were then washed in PBS and treated with rabbit anti-goat biotinylated secondary antibodies (Vector Labs). […]
The rabbit polyclonal PCNA (proliferating cell nuclear antigen) antibody (1:4000; Sigma, St. Louis, Mo.) was detected using the HRP:SG detection system as described for routine single IHC, except the use of the SG chromogen (Vector Labs). […] DMBT1 was then detected using the Fast Red chromogen (Sigma, St. Louis, Mo.). […]

SMILES	Endometrial Thickness (mm) (endometrium)	Endometrial Thickness (mm) (endometrium; listed as Mif)	effect on estrogen-induced increase in DMBT1 mRNA levels (DMBT1 [1])	effect on estrogen-induced increase in DMBT1 mRNA levels (DMBT1 [1]; listed as Mifepristone)	repression of estrogen-induced DMBT1 mRNA levels (DMBT1 [1]; Ovx/E2 + 10 mg/kg, microarray (FIG. 7))	effect on progestin blockade of DMBT1 mRNA increase (DMBT1 [2])	DMBT1 expression on coadministration with estrone (DMBT1 [3])	uterine weight on co-treatment with estrone (uterus)	uterine weight (uterus)	thickening of the luminal epithelium (luminal epithelium)	cell levels of DMBT1 (immunostaining) in luminal epithelium (DMBT1 [4])
CC#C[C@]1(O)CC[C@H]2[C@@H]3CCC4=CC(=O)CCC4=C3[C@@H](c3ccc(N(C)C)cc3)C[C@@]21C [mifepristone]	shrinks to about the thickness of that seen with leuprolide-treated tissue	1.17 mm	inhibited	prevented the increase in DMBT1 mRNA levels	about 20 fold	blocked in turn					
O=C(c1ccc(OCCN2CCCCC2)cc1)c1c(-c2ccc(O)cc2)sc2cc(O)ccc12 [raloxifene]							additive increase	lower uterine weights, as compared to estrone	did not significantly affect uterine weight	not with raloxifene treatment	higher cell levels of DMBT1 than estrogen
CC/C(=C(\c1ccccc1)c1ccc(OCCN(C)C)cc1)c1ccccc1 [tamoxifen]							increased slightly	lower uterine weights, as compared to estrone	increases uterine weight only moderately	even more pronounced	higher cell levels of DMBT1 than estrogen
